How the values were obtained:
plasma aldosterone = conditions: hypertensive patients; J. Staessen et al 1981; cited from earlier work
[1] = test system: patients with symptomatic heart failure; assay: Human clinical trial (spironolactone dose-ranging study): hyperkalemia, adverse events, hospitalizations, deaths
From the text: (§1) All statistical methods were two-sided.
In this analysis, the risk ratio can be thought of as the probability that the patient with the risk factor will develop hyperkalemia, relative to the probability that a patient without the risk factor will develop it.

[2] = test system: patients with symptomatic heart failure; assay: Human clinical trial (spironolactone dose-ranging study): cardiac assessments, weight and vital signs; type: in vivo
From the text: as §1

myocardial fibrosis = conditions: cited from earlier work
hypertensive-rat cohort = conditions: spironolactone sub-cutaneously; C.G. Brilla et al 1993; cited from earlier work
[3] = test system: patients with symptomatic heart failure; assay: Human clinical trial (spironolactone dose-ranging study): clinical laboratory values and neurohormones; conditions: for Creatinine, Week 12 Mean Change / Hematocrit, Week 12 Mean Change / Hemoglobin, Week 12 Mean Change / N-Terminal ANF, Week 12 Mean Change / PRA, Week 12 Mean Change / Potassium, Week 12 Mean Change / Sodium, Week 12 Mean Change / Urinary aldosterone, Week 12 Mean Change: Week 12 vs baseline

C[C@H](CS)C(=O)N1CCC[C@H]1C(=O)O [Captopril, captopril]
Plasma aldosterone despite continued ACE inhibition (plasma aldosterone): gradual return of plasma aldosterone to baseline levels

CC(=O)S[C@@H]1CC2=CC(=O)CC[C@]2(C)[C@H]2CC[C@@]3(C)[C@@H](CC[C@@]34CCC(=O)O4)[C@H]12 [Spironolactone, 17-hydroxy-7α-mercapto-3-oxo-17α-pregn-4-ene-21-carboxylic acid γ-lactone acetate]
Deaths during the drug treatment period ([1]; all dose groups, 12 weeks): No deaths were reported
Hyperkalemia incidence, dose-response ([1]; human, in vivo): clear dose-response in term of incidence
Patients died within 30 days after the study was completed ([1]; previously at the 50 mg dose): Three
Mean Change in Supine diastolic BP from Baseline to Week 12 ([2]; 12.5 mg/d): −0.19 (9.13)
Mean Change in Supine pulse from Baseline to Week 12 ([2]; 12.5 mg/d): −3.70 (9.56) BPM
Mean Change in Supine systolic BP from Baseline to Week 12 ([2]; 12.5 mg/d): 1.84 (11.82)
Mean Change in Weight from Baseline to Week 12 ([2]; 12.5 mg/d): 0.59 (3.00)
Mean systolic and diastolic blood pressure (standing and supine) ([2]; 25 mg, 50 mg and 75 mg groups, all visits): decreases in mean systolic and diastolic blood pressure
Mean Change in Supine diastolic BP from Baseline to Week 12 ([2]; 25 mg/d): −2.74 (9.57)
Mean Change in Supine pulse from Baseline to Week 12 ([2]; 25 mg/d): −1.40 (10.00) BPM
Mean Change in Supine systolic BP from Baseline to Week 12 ([2]; 25 mg/d): −4.46 (13.97)
Mean Change in Weight from Baseline to Week 12 ([2]; 25 mg/d): −0.16 (3.02)
Mean Change in Supine diastolic BP from Baseline to Week 12 ([2]; 50 mg/d): −5.11 (11.11)
Mean Change in Supine pulse from Baseline to Week 12 ([2]; 50 mg/d): −3.21 (11.27) BPM
Mean Change in Supine systolic BP from Baseline to Week 12 ([2]; 50 mg/d): −7.04 (15.83)
Mean Change in Weight from Baseline to Week 12 ([2]; 50 mg/d): 0.62 (2.05)
Changes from baseline in body weight ([2]; 75 mg dose group, Day 9 and Week 4): more weight loss than other patients
Mean Change in Supine diastolic BP from Baseline to Week 12 ([2]; 75 mg/d): −5.91 (9.05)
Mean Change in Supine pulse from Baseline to Week 12 ([2]; 75 mg/d): −1.07 (13.79) BPM
Mean Change in Supine systolic BP from Baseline to Week 12 ([2]; 75 mg/d): −5.68 (15.62)
Mean Change in Weight from Baseline to Week 12 ([2]; 75 mg/d): −0.81 (2.70)
Sodium retention score, dose response ([2]; Day 9 (p=0.019), not seen at later visits): more reduction in sodium retention score
Pulse in the supine position, dose response ([2]; Week 4 (p-value=0.045)): greater decreases in pulse in the supine position at higher doses
Changes in loop diuretic therapy ([2]; Week 8 (p=0.004), higher doses vs placebo, not observed at Week 12): decreases in the loop diuretic dose
NYHA Class ([2]; spironolactone groups vs placebo, difference not statistically significant): trend toward improvement
Myocardial fibrosis in animal models (myocardial fibrosis; D. Klug et al 1993): prevents myocardial fibrosis
Fibrosis in animal models (myocardial fibrosis; irrespective of left ventricular hypertrophy and hypertension, C.G. Brilla et al 1993): prevent fibrosis
Fibrosis in the hypertensive-rat cohort (hypertensive-rat cohort): prevent fibrosis
Creatinine, Week 12 Mean Change ([3]; 12.5 mg/d): 6.83 µmol/L
Hematocrit, Week 12 Mean Change ([3]; 12.5 mg/d): 0.00%
Hemoglobin, Week 12 Mean Change ([3]; 12.5 mg/d): 0.12 mmol/L/Fe
N-Terminal ANF, Week 12 Mean Change ([3]; 12.5 mg/d): -287.30 pmol/L
PRA, Week 12 Mean Change ([3]; 12.5 mg/d): 9.90 NgAngl/L/s
Potassium, Week 12 Mean Change ([3]; 12.5 mg/d): 0.18 mmol/L
Sodium, Week 12 Mean Change ([3]; 12.5 mg/d): -1.61 mmol/L
Urinary aldosterone, Week 12 Mean Change ([3]; 12.5 mg/d): 4.21 nmol/D
Creatinine, Week 12 Mean Change ([3]; 25 mg/d): 9.30 µmol/L
Hematocrit, Week 12 Mean Change ([3]; 25 mg/d): −0.02%
Hemoglobin, Week 12 Mean Change ([3]; 25 mg/d): −0.20 mmol/L/Fe
N-Terminal ANF, Week 12 Mean Change ([3]; 25 mg/d): -294.60 pmol/L
PRA, Week 12 Mean Change ([3]; 25 mg/d): 9.33 NgAngl/L/s
Potassium, Week 12 Mean Change ([3]; 25 mg/d): 0.37 mmol/L
Sodium, Week 12 Mean Change ([3]; 25 mg/d): -1.85 mmol/L
Urinary aldosterone, Week 12 Mean Change ([3]; 25 mg/d): 4.27 nmol/D
Creatinine, Week 12 Mean Change ([3]; 50 mg/d): 14.06 µmol/L
Hematocrit, Week 12 Mean Change ([3]; 50 mg/d): −0.02%
Hemoglobin, Week 12 Mean Change ([3]; 50 mg/d): −0.31 mmol/L/Fe
N-Terminal ANF, Week 12 Mean Change ([3]; 50 mg/d): -351.30 pmol/L
PRA, Week 12 Mean Change ([3]; 50 mg/d): 13.18 NgAngl/L/s
Potassium, Week 12 Mean Change ([3]; 50 mg/d): 0.51 mmol/L
Sodium, Week 12 Mean Change ([3]; 50 mg/d): -2.52 mmol/L
Urinary aldosterone, Week 12 Mean Change ([3]; 50 mg/d): 8.11 nmol/D
Creatinine, Week 12 Mean Change ([3]; 75 mg/d): 21.90 µmol/L
Hematocrit, Week 12 Mean Change ([3]; 75 mg/d): −0.03%
Hemoglobin, Week 12 Mean Change ([3]; 75 mg/d): −0.46 mmol/L/Fe
N-Terminal ANF, Week 12 Mean Change ([3]; 75 mg/d): -370.60 pmol/L
PRA, Week 12 Mean Change ([3]; 75 mg/d): 10.23 NgAngl/L/s
Potassium, Week 12 Mean Change ([3]; 75 mg/d): 0.58 mmol/L
Sodium, Week 12 Mean Change ([3]; 75 mg/d): -3.37 mmol/L
Urinary aldosterone, Week 12 Mean Change ([3]; 75 mg/d): 11.13 nmol/D
Change from baseline in PRA, dose-response ([3]; Day 9, Week 4 and Week 12, higher doses): greater increases in PRA
N-Terminal Atrial Natriuretic Factor (ANF), change from baseline ([3]; all active treatments, all treatment visits): decreases from baseline
Urinary aldosterone excretion, change from baseline ([3]; all treatment groups, 12 week visit): mean increases from baseline
Change from baseline in serum potassium, dose-response ([3]; all treatment period visits, higher doses): larger increases in potassium

Reference: patent publication US6608047B2, “Use of low dosage amount of spironolactone for treatment of cardiovascular disease” (Pharmacia Corporation, priority 1995, dated 2003)
